# Results as given in US9801855B2, “Nanocrystalline solid dispersion compositions and process of preparation thereof” (NATIONAL INSTITUTE OF PHARMACEUTICAL EDUCATION AND RESEARCH …, priority 2012, dated 2017).
# What was measured:
# in vivo = details: female, SD, rat, po, 250 mg/kg
# [1] = Dissolution of curcumin powder and dispersion in fasted state simulated gastric fluid; type: physicochemical; details: fasted state simulated gastric fluid pH 1.6, 37° C., 100 rpm, 25 mg equivalent
# Protocol: • i. 2 gm of curcumin and 2 gm of stearic acid were dissolved in 200 ml of acetone. • ii. The solution was spray dried using following parameters (Table 1). • iii. DSC and MDSC indicated the crystalline nature of curcumin in the dispersion. The crystallite size measured from powder X-ray diffraction peak broadening by Scherrer equation was 398.6 nm. • iv. Fasted state simulated gastric fluid contained sodium taurocholate (80 μM), lecithin (20 μM), pepsin (0.1 mg/ml), sodium chloride (34.2 mM), sodium lauryl sulphate (0.05% w/v) and hydrochloric acid (q.s. pH 1.6). Samples equivalent to 25 mg of CRM were added into 900 ml dissolution medium and incubated at 37±0.5° C. at 100 rpm.
# [2] = Dissolution of powder and dispersion in 900 ml of 100 mM pH 6.8 phosphate buffer at 100 rpm; type: physicochemical; details: 60 mg equivalent
# Protocol: • i. 2 gm of hesperetin was dissolved in 150 ml of methanol • ii. 2 gm of mannitol was dissolved in 50 ml of distilled water. • iii. Aqueous mannitol solution was added to methanolic solution of hesperetin. The solution was spray dried using following parameters (Table 10). • iv. DSC and MDSC indicated the crystalline nature of hesperetin in the dispersion. The crystallite size measured from powder X-ray diffraction peak broadening (FIG. 14) by Scherrer equation was 141.06 nm. • v. The dissolution profiles of hesperetin powder and dispersion in 900 ml of 100 mM pH 6.8 phosphate buffer at 100 rpm are presented in Table 11. 60 mg equivalent of hesperetin as powder and dispersion were taken for dissolution studies. • i. 2 gm of Naringenin was dissolved in 150 ml of methanol • ii. 2 gm of mannitol was dissolved in 50 ml of distilled water. • iii. Aqueous mannitol solution was added to methanolic solution of naringenin. The solution was spray dried using following parameters (Table 12). • iv. DSC and MDSC indicated the crystalline nature of naringenin in the dispersion. The crystallite size measured from powder X-ray diffraction peak broadening (FIG. 15) by Scherrer equation was 210.63 nm. • v. The dissolution profiles of naringenin powder and dispersion in 900 ml of 100 mM pH 6.8 phosphate buffer at 100 rpm are presented in Table 13. 60 mg equivalent of naringenin as powder and dispersion were taken for dissolution studies.
% Release ([2]; 0 min),% Release ([2]; 3 min),% Release ([2]; 5 min),% Release ([2]; 10 min),% Release ([2]; 15 min),% Release ([2]; 30 min),% Release ([2]; 60 min),% Release ([2]; 120 min),Compound,further results
,,,,,,,,"COc1cc(/C=C/C(=O)CC(=O)/C=C/c2ccc(O)c(OC)c2)ccc1O [Control, curcumin]",AUC(0-inf) (in vivo): 76.2 ng·h/mL; Cmax (in vivo): 58.1 ng/mL; Tmax (in vivo): 0.6 ± 0.1 h; half-life (in vivo): 1.4 ± 0.3 h
,,,,,,,,"COc1cc(/C=C/C(=O)CC(=O)/C=C/c2ccc(O)c(OC)c2)ccc1O [Curcumin powder, curcumin]",% Release ([1]; 5 min): 10.8%; % Release ([1]; 10 min): 15.0%; % Release ([1]; 15 min): 15.4%; % Release ([1]; 20 min): 15.1%; % Release ([1]; 30 min): 15.1%; % Release ([1]; 40 min): 15.2%; % Release ([1]; 60 min): 15.0%; % Release ([1]; 80 min): 15.2%; % Release ([1]; 100 min): 15.6%; % Release ([1]; 120 min): 15.3%
0.00%,1.25%,3.06%,2.15%,1.06%,1.48%,3.74%,7.47%,"COc1ccc([C@@H]2CC(=O)c3c(O)cc(O)cc3O2)cc1O [Hesperetin powder, hesperetin]",
1.60%,5.84%,9.54%,11.52%,17.32%,23.34%,26.25%,25.14%,"O=C1C[C@@H](c2ccc(O)cc2)Oc2cc(O)cc(O)c21 [Naringenin powder, naringenin]",
